Measurements published in US20260184712A1, “Heterocyclic Compounds as ENT Inhibitors and Compounds for Use in the Treatment of Cancers” (iTeos Belgium SA, priority 2022, published 2026).
Read-outs that look alike come from different tables or passages of the source.

Molecular target: T1, human ENT1 (Homo sapiens, UniProt Q99808)
T1 construct: JAR cells expressing ENT1 were purchased from ATCC; host or cells: JAR cells
T1 sequence (Q99808 1-456): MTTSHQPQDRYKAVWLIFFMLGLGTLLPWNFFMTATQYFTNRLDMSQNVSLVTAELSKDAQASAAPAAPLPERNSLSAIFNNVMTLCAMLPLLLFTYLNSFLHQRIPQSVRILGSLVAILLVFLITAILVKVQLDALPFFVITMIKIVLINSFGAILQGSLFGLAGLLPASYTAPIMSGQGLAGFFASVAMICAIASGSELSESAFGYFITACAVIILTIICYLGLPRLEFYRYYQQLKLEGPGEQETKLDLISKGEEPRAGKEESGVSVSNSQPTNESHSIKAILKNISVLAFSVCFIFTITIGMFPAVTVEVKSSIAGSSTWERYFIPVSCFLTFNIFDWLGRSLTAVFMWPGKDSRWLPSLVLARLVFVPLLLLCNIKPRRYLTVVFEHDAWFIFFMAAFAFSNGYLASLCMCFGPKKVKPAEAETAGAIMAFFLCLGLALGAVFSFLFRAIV
Assay: ENT1 binding assay (competition with Sahenta-DY647 on JAR cells)
Conditions: IC50 categorized
Method: Compounds of the present disclosure were assayed to show ability to bind to human ENT1. The assay is a competition between a compound of interest and Sahenta-DY647, an ENT1 inhibitor that emits fluorescence (Ex=630 nm, Em=670 nm). By measuring the fluorescence at the end of the assay, one can assess the binding potency of the compounds tested. The compounds of the present disclosure were tested and compared to known ENT inhibitors, dilazep and NBMPR:
JAR cells expressing ENT1 were purchased from ATCC® (HTB-144TM). Cells were cultured in RPMI 1640 medium (LONZA®, #BE12-702F/U1) supplemented with 10% FBS (GIBCO®, #10270-106), 10 mM Hepes (LONZA®, #BE17-737E), 1 mM Sodium Pyruvate (LONZA®, #BE13-115E), and 2% Penicillin/Streptomycin (LONZA®, #DE17-603E) at 37° C. and 5% CO2.
The assay was conducted with the following buffer on the day of the assay: HBSS (LONZA®, #LO-527F) supplemented with 10 mM Hepes (LONZA®, #BE17-737E) and 0.1% BSA (Miltenyi®, #130-091-376).
JAR cells were resuspended in the described buffer. The compounds of interest and Sahenta-DY647 were diluted 200× with the described buffer.
A total of 50,000 cells were pre-incubated for 30 min at 4° C. with the compounds of the present disclosure before adding the corresponding amount of Sahenta-DY647 (100 nM) to the minimal concentration at Bmax and incubating for an additional 30 min at 4° C. The total volume of the reaction was 100 μL (50 μL of cells, 25 μL of the compounds of the present disclosure, and 25 μL of Sahenta-DY647) in a U-bottom 96 well plate (Greiner®, #650-180). The plates were washed 2× by centrifugation (4 min, 400 rcf at 4° C.) in the same buffer. Cells were re-suspended in 70 μL of the buffer and 50 μL was transferred to a Black 384 Optiplate (PerkinElmer®, #6007279). Fluorescence (Ex=630 nm, Em=670 nm) was acquired on a Spectramax i3x (Molecular Devices®).
Dose-response data from the compounds were analyzed with Graphpad Prism 9.1.1@software, using nonlinear regression applied to a sigmoidal dose-response model and the following equation:
Y=Bottom+(Top-Bottom)/(1+10^((LogIC50−X)*HillSlope)), with a shared bottom and top between the test reagent and dipyridamole.
Data from multiple experiments were compiled by taking the average pIC50 value for the reagent in question±the standard deviation (s.d.) and expressing it as an average IC50 value in nM.
The inhibitory effect of the test compound was expressed as a percentage of the inhibition of SAHENTA-DY647 binding.

[1] = competition with SAHENTA-DY647 binding, read-out: Binding Assay IC50

Row | Compound | IC50 [1] [nM] | IC50 (Binding Assay IC50, competition with SAHENTA-DY647 binding) [nM]
1 | C[C@H]1O[C@@H](n2c(NC3CC3)nc3c(N4CCc5ccc(C#N)cc5C4)ncnc32)[C@H](O)[C@@H]1O [Compound 164] | 20 to 500 | 
2 | C[C@H]1O[C@@H](n2c(NCCO)nc3c(N4CCc5ccc(C#N)cc5C4)ncnc32)[C@H](O)[C@@H]1O [Compound 167] | 20 to 500 | 
3 | C[C@H]1O[C@@H](n2c(NC3CCOCC3)nc3c(N4CCc5ccccc5C4)ncnc32)[C@H](O)[C@@H]1O [Compound 170] | 20 to 500 | 
4 | C[C@H]1O[C@@H](n2c(N[C@H]3CC[C@H](O)CC3)nc3c(N4CCc5ccccc5C4)ncnc32)[C@H](O)[C@@H]1O [Compound 171] | 20 to 500 | 
5 | C[C@H]1O[C@@H](n2cnc3c(C4=Cc5cc([N+](=O)[O-])ccc5CC4)ncnc32)[C@H](O)[C@@H]1O [Compound 192] | 20 to 500 | 
6 | C[C@H]1O[C@@H](n2c(N[C@H]3CC[C@@H](O)CC3)nc3c(N4CCc5ccccc5C4)ncnc32)[C@H](O)[C@@H]1O [Compound 195] | 20 to 500 | 
7 | C[C@H]1O[C@@H](n2cnc3c(OCc4ccc(F)c(F)c4)ncnc32)[C@H](O)[C@@H]1O [Compound 201] | 20 to 500 | 
8 | C[C@H]1O[C@@H](n2cnc3c(OCc4ccc(F)cc4)ncnc32)[C@H](O)[C@@H]1O [Compound 202] | 20 to 500 | 
9 | C[C@H]1O[C@@H](n2cnc3c(OCc4ccc(C(F)(F)F)cc4)ncnc32)[C@H](O)[C@@H]1O [Compound 204] | 20 to 500 | 
10 | C[C@H]1O[C@@H](n2cnc3c(OCc4ccc([N+](=O)[O-])nc4)ncnc32)[C@H](O)[C@@H]1O [Compound 205] | 20 to 500 | 
11 | C[C@H]1O[C@@H](n2cnc3c(OCc4ccc(C5CC5)cc4)ncnc32)[C@H](O)[C@@H]1O [Compound 206] | 20 to 500 | 
12 | C[C@H]1O[C@@H](n2c(-c3cn[nH]c3)nc3c(OCc4ccc([N+](=O)[O-])cc4)ncnc32)[C@H](O)[C@@H]1O [Compound 208] | 20 to 500 | 
13 | C[C@H]1O[C@@H](n2cnc3c(N4CC(c5ccc([N+](=O)[O-])cc5)C4)ncnc32)[C@H](O)[C@@H]1O [Compound 209] | 20 to 500 | 
14 | C[C@H]1O[C@@H](n2cnc3c(CCc4ccc([N+](=O)[O-])cc4)ncnc32)[C@H](O)[C@@H]1O [Compound 210] | 20 to 500 | 
15 | Cc1ccc(COc2ncnc3c2ncn3[C@@H]2O[C@H](C)[C@@H](O)[C@H]2O)cc1 [Compound 211] | 20 to 500 | 
16 | C[C@H]1O[C@@H](n2cnc3c(N4CCC(c5ccc([N+](=O)[O-])cc5)CC4)ncnc32)[C@H](O)[C@@H]1O [Compound 213] | 20 to 500 | 
17 | C[C@H]1C[C@@H](n2cnc3c(SCc4ccc([N+](=O)[O-])cc4)ncnc32)[C@H](O)[C@@H]1O [Compound 214] | 20 to 500 | 
18 | O=[N+]([O-])c1ccc(COc2ncnc3c2ncn3[C@@H]2O[C@H](CO)[C@@H](O)C2(F)F)cc1 [Compound 220] | > 500 | 
19 | C[C@H]1O[C@@H](n2cnc3c(SCc4ccccc4)ncnc32)[C@H](O)[C@@H]1O [Compound 224] |  | > 500
20 | C[C@H]1O[C@@H](n2cnc3c(OCc4ccc([N+](=O)[O-])cc4)nc(F)nc32)[C@H](O)[C@@H]1O [Compound 225] | > 500 | 
21 | C[C@H]1O[C@@H](n2cnc3c(OCc4ccc(Cl)c(Cl)c4)ncnc32)[C@H](O)[C@@H]1O [Compound 226] | > 500 | 
22 | C[C@H]1O[C@@H](n2cnc3c(OC4CCc5ccc([N+](=O)[O-])cc5C4)ncnc32)[C@H](O)[C@@H]1O (stereo partly shown) [Compound 228] | > 500 | 
23 | COc1ccc(COc2ncnc3c2ncn3[C@@H]2O[C@H](C)[C@@H](O)[C@H]2O)cc1 [Compound 231] | > 500 | 
24 | C[C@H]1OC(n2cnc3c(COc4ccc(OC(F)F)cc4)ncnc32)[C@H](O)[C@@H]1O (stereo partly shown) [Compound 233] | > 500 | 
25 | C[C@H]1O[C@@H](n2cnc3c(OCc4ccc(OC(F)(F)F)c(Cl)c4)ncnc32)[C@H](O)[C@@H]1O [Compound 234] | > 500 | 
26 | C[C@H]1O[C@H](n2cnc3c(OCc4ccc(C#N)c(F)c4)nc(Cl)nc32)[C@H](O)[C@@H]1O [Compound 237] | > 500 | 

Continued, in another order:

Row | IC50 [1] [nM] | Compound | IC50 (Binding Assay IC50, competition with SAHENTA-DY647 binding) [nM]
27 | 20 to 500 | CCOC(=O)/C=C/[C@H]1O[C@@H](n2cnc3c(OCc4ccc([N+](=O)[O-])cc4)ncnc32)[C@H](O)[C@@H]1O [Compound 169] | 
28 | 20 to 500 | C[C@H]1O[C@@H](n2c(NC3CCS(=O)(=O)CC3)nc3c(N4CCc5ccccc5C4)ncnc32)[C@H](O)[C@@H]1O [Compound 181] | 
29 | 20 to 500 | O=[N+]([O-])c1ccc(COc2ncnc3c2ncn3[C@@H]2O[C@H](COCCO)[C@@H](O)[C@H]2O)cc1 [Compound 191] | 
30 | 20 to 500 | C[C@H]1O[C@@H](n2ccc3c(SCc4ccc([N+](=O)[O-])cc4)ncnc32)[C@H](O)[C@@H]1O [Compound 197] | 
31 | 20 to 500 | CCNc1nc2c(N3CCc4ccc(C#N)cc4C3)ncnc2n1[C@@H]1O[C@H](C)[C@@H](O)[C@H]1O [Compound 198] | 
32 | 20 to 500 | C[C@H]1O[C@@H](n2cnc3c(SCc4ccc(OCC(F)(F)F)cc4)ncnc32)[C@H](O)[C@@H]1O [Compound 207] | 
33 | 20 to 500 | CC(C)Nc1nc2c(N3CCc4ccccc4C3)ncnc2n1[C@@H]1O[C@H](C)[C@@H](O)[C@H]1O [Compound 212] | 
34 | 20 to 500 | C[C@H]1O[C@@H](n2c(N)nc3c(OCCc4ccc([N+](=O)[O-])cc4)ncnc32)[C@H](O)[C@@H]1O [Compound 215] | 
35 | 20 to 500 | O=[N+]([O-])c1ccc(CSc2ncnc3c2ncn3[C@@H]2O[C@H](CO)C[C@H]2O)cc1 [Compound 216] | 
36 | 20 to 500 | C[C@H]1O[C@@H](n2cnc3c(OCc4cc(Cl)cc(Cl)c4)ncnc32)[C@H](O)[C@@H]1O [Compound 217] | 
37 | 20 to 500 | O=[N+]([O-])c1ccc(COc2ncnc3c2ncn3[C@@H]2O[C@H](CCCO)[C@@H](O)[C@H]2O)cc1 [Compound 218] | 
38 | > 500 | CCOC(=O)CC[C@H]1O[C@@H](n2cnc3c(OCc4ccc([N+](=O)[O-])cc4)ncnc32)[C@H](O)[C@@H]1O [Compound 219] | 
39 | > 500 | C[C@H]1O[C@@H](n2cnc3c(OCc4cccc(C#N)c4)ncnc32)[C@H](O)[C@@H]1O [Compound 221] | 
40 | > 500 | C[C@H]1O[C@@H](n2cnc3c(OCc4ccc([N+](=O)[O-])cc4)nc(Cl)nc32)[C@H](O)[C@@H]1O [Compound 222] | 
41 | > 500 | C[C@H]1O[C@@H](n2cnc3c(OCCc4cc(F)c(C#N)c(F)c4)ncnc32)[C@H](O)[C@@H]1O [Compound 223] | 
42 | > 500 | C[C@H]1O[C@@H](n2cnc3c(C4CCc5ccc([N+](=O)[O-])cc5C4)ncnc32)[C@H](O)[C@@H]1O (stereo partly shown) [Compound 227] | 
43 | > 500 | O=[N+]([O-])c1ccc(COc2ncnc3c2ncn3[C@@H]2O[C@H](CCO)[C@@H](O)[C@H]2O)cc1 [Compound 229] | 
44 | > 500 | COc1ccc(COc2ncnc3c2ncn3[C@@H]2O[C@H](C)[C@@H](O)[C@H]2O)cc1C(F)(F)F [Compound 230] | 
45 | > 500 | C[C@H]1O[C@@H](n2cnc3c(OCCc4ccc(C#N)c(F)c4)ncnc32)[C@H](O)[C@@H]1O [Compound 232] | 
46 | > 500 | Cc1cc(Cl)ccc1COc1ncnc2c1ncn2[C@@H]1O[C@H](C)[C@@H](O)[C@H]1O [Compound 235] | 
47 | > 500 | C[C@H]1O[C@@H](n2cnc3c(OCc4ccc(OCCF)cc4)ncnc32)[C@H](O)[C@@H]1O [Compound 236] | 
48 | > 500 | C[C@H]1O[C@@H](n2cnc3c(OCc4ccc(F)c(F)c4F)ncnc32)[C@H](O)[C@@H]1O [Compound 238] | 
49 | > 500 | O=[N+]([O-])c1ccc(COc2ncnc3c2ncn3[C@@H]2O[C@H](COCCN3CCCC3)[C@@H](O)[C@H]2O)cc1 [Compound 240] | 
